Earlier results, collected in patent US20140172387A1, “PREDICTION OF MOLECULAR BIOACTIVATION” (Genentech, Inc., priority 2012, published 2014).
Values after ≈ are worked out from the molar mass of the structure shown. Like-named read-outs stand apart in the source and are kept apart here. Each block holds one compound with its values, some of them ahead of it.

Columns and labels:
[1] = target: insect nicotinic acetylcholine receptor (nAChR); conditions: for IC50: insect nAChR
[2] = target: α4β2 mammalian nAChR (Homo sapiens, UniProt P17787+P43681)
α4β2 mammalian nAChR, sequence (P43681 29-627 limits assumed): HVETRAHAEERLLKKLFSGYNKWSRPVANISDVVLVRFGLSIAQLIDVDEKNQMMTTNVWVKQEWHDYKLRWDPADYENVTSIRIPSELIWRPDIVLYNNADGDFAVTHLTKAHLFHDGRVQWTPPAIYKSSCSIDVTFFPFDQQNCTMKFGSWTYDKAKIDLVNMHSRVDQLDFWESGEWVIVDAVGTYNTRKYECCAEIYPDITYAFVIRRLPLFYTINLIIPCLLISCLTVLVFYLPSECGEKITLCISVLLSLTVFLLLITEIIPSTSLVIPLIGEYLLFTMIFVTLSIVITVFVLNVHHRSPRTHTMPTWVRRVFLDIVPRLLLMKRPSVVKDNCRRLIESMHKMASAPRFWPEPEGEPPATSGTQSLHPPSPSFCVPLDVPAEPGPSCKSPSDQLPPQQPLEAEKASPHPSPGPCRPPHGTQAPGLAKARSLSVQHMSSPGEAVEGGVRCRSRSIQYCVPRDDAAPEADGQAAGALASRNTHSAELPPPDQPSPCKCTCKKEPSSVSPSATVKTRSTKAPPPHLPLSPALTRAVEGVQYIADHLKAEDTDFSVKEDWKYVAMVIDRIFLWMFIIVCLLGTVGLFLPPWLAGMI
α4β2 mammalian nAChR, sequence (P17787 26-502): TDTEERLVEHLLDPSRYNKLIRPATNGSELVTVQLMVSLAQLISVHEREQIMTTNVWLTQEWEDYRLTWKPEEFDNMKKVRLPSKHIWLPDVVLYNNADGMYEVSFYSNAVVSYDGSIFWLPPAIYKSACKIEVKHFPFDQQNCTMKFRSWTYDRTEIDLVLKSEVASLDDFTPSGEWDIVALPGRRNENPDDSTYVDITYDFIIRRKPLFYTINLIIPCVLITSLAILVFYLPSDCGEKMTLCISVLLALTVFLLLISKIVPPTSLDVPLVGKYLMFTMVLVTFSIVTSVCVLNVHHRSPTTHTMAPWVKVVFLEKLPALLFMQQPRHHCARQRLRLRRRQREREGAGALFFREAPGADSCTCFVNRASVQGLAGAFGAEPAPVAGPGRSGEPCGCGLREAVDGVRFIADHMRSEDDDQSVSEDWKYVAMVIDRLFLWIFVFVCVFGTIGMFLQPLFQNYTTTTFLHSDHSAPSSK

[3] = not given; remark: listed apart in the source

Structure (SMILES): N=C1NCCN1Cc1ccc(Cl)nc1 [imidacloprid-NH (6), imidacloprid-NH]
IC50 [1]: 1530 nM | IC50 ([2]; read-out: IC50): 8.2 nM

Structure (SMILES): C=CCl [vinyl chloride (1), chloroethene]
water solubility (experimental data): 2700 µg/mL

Structure (SMILES): O=[N+]([O-])NC1=NCCN1Cc1ccc(Cl)nc1 [imidacloprid (1), N-[1-[(6-Chloro-3-pyridyl)methyl]-4,5-dihydroimidazol-2-yl]nitramide]
IC50 [1]: 4.6 nM | selectivity for the insect vs. the α4β2 mammalian nAChR ([1]; insect vs. mammalian α4β2 nAChR): > 500 fold | IC50 [2]: 2600 nM

excreted unchanged in urine [3]: up to 9 % of therapeutic dose | water solubility (experimental data) (at 20° C): 12780 µg/mL (≈ 84.5 mM)
Structure (SMILES): CC(=O)Nc1ccc(O)cc1 [acetaminophen (1), N-acetyl-para-aminophenol]

water solubility (experimental data) (at pH 7): 6.41 µg/mL (≈ 0.0136 mM)
Structure (SMILES): CCc1nn(CCCN2CCN(c3cccc(Cl)c3)CC2)c(=O)n1CCOc1ccccc1 [Nefazodone (1), 1-(3-[4-(3-chlorophenyl)piperazin-1-yl]propyl)-3-ethyl-4-(2-phenoxyethyl)-1H-1,2,4-triazol-5(4H)-one]
